Laboratory results published in patent US20120065187A1 (ALCON RESEARCH, LTD, priority 2008, published 2012).
pEC50: −log10 of the molar value. Where a name gives a salt, the structure may show the parent alone.

How the values were obtained:
[1] = biological target: T1, human H4 (Homo sapiens, UniProt Q9H3N8); experiment: In vitro histamine receptor cell-based assay (aequorin bioluminescence), H4 antagonism; conditions: CHO-K1 cells expressing human H4, aequorin and Gα16; histamine at EC80; read-out: H4 Antagonist EC50
T1 construct: host or cells: CHO-K1
T1 sequence (Q9H3N8 whole entry): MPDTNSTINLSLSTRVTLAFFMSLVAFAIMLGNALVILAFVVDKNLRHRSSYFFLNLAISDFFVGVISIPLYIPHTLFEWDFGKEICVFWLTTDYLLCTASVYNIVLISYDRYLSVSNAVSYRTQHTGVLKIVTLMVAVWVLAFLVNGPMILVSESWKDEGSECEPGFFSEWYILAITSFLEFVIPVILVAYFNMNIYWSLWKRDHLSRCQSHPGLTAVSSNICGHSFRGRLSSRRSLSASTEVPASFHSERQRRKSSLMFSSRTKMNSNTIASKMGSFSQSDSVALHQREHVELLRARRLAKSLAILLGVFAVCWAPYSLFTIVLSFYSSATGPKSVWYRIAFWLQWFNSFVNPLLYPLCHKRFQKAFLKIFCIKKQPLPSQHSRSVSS
Experimental: (§1) The cell-based assays utilize an aequorin dependent bioluminescence signal. Doubly-transfected, stable CHO-K1 cell lines expressing human H1 or H4, mitochondrion-targeted aequorin, and (H4 only) human G protein Gα16 are obtained from Perkin-Elmer. Cells are maintained in F12 (Ham's) growth medium, containing 10% (vol./vol.) fetal bovine serum, penicillin (100 IU/mL), streptomycin (0.1 mg/mL), zeocin (0.25 mg/mL) and geneticin (0.40 mg/mL). Cell media components are from Invitrogen, Inc. One day prior to assay, the growth medium is replaced with the same, excluding zeocin and geneticin.
(§2) For assay preparation, growth medium is aspirated, and cells are rinsed with calcium-free, magnesium-free phosphate-buffered saline, followed by two to three minute incubation in Versene (Invitrogen, Inc.) at 37° C. Assay medium (DMEM:F12 [50:50], phenol-red free, containing 1 mg/mL protease-free bovine serum albumin) is added to collect the released cells, which are then centrifuged. The cell pellet is re-suspended in assay medium, centrifuged once more, and re-suspended in assay medium to a final density of 5×10^6 cells/mL. Coelenterazine-h dye (500 μM in ethanol) is added to a final concentration of 5 μM, and mixed immediately. The conical tube containing the cells is then wrapped with foil to protect the light-sensitive dye. The cells are incubated for four hours further at room temperature (approximately 21° C.) with end-over-end rotation to keep them in suspension.
Just before assay, the dye-loaded cells are diluted to 0.75×10^6 cells/mL (H1 receptor) or 1.5×10^6 cells/mL (H4 receptor) with additional assay medium. Cells are dispensed to 1536 well micro-titer plates at 3 μL/well. To assay receptor antagonism, 60 nl of 100× concentration test compounds in 100% dimethyl sulfoxide (DMSO) are dispensed to the wells, one compound per well, by passive pin transfer, and the plates are incubated for 15 minutes at room temperature. […] The pipette dispenses 3 μL/well of agonist (histamine, at twice the final concentration, where final concentration is a previously determined EC80) in assay medium, with concurrent bioluminescence detection. Agonist activity of test compounds is excluded by separate assays that measure response to test compounds immediately, without added histamine agonist.
(§3) CCD image capture on the Lumilux includes a 5 second baseline read prior to agonist addition, and generally a 40 second read per plate after agonist addition. A decrease in bioluminescence signal (measured either as area-under-the-curve, or maximum signal amplitude minus minimum signal amplitude) correlates with receptor antagonism in a dose dependent manner. The negative control is DMSO lacking any test compound. For antagonist assays, the positive controls are diphenhydramine (2-Diphenylmethoxy-N,N-dimethylethylamine, 10 μM final concentration, H1 receptor) or JNJ7777120 (1-[(5-Chloro-1H-indol-2-yl)carbonyl]-4-methyl-piperazine, 10 μM final concentration, H4 receptor). Efficacy is measured as a percentage of positive control activity.

[2] = biological target: T2, human H1 (Homo sapiens, UniProt P35367); experiment: In vitro histamine receptor cell-based assay (aequorin bioluminescence), H1 antagonism; conditions: CHO-K1 cells expressing human H1 and aequorin; histamine at EC80; read-out: H1 Antagonist EC50
T2 construct: host or cells: CHO-K1
T2 sequence (P35367 whole entry): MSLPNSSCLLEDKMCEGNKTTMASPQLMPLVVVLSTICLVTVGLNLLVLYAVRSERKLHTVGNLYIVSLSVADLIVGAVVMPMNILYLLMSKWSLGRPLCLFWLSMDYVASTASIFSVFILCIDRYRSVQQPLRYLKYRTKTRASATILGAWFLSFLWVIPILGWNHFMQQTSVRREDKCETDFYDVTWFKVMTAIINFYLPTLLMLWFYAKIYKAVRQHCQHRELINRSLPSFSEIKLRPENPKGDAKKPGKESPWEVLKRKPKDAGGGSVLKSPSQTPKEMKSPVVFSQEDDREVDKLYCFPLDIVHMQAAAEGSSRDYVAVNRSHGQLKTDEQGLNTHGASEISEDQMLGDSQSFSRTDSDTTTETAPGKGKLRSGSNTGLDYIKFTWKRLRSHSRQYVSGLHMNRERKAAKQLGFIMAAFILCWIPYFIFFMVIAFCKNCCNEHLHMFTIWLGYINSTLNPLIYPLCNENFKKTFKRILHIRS
Experimental: as §1, §2
Just before assay, the dye-loaded cells are diluted to 0.75×10^6 cells/mL (H1 receptor) or 1.5×10^6 cells/mL (H4 receptor) with additional assay medium. Cells are dispensed to 1536 well micro-titer plates at 3 μL/well. To assay receptor antagonism, 60 nl of 100× concentration test compounds in 100% dimethyl sulfoxide (DMSO) are dispensed to the wells, one compound per well, by passive pin transfer, and the plates are incubated for 15 minutes at room temperature. Assay plates are then transferred to a Lumilux bioluminescence plate reader (Perkin-Elmer) equipped with an automated 1536 disposable tip pipette. The pipette dispenses 3 μL/well of agonist (histamine, at twice the final concentration, where final concentration is a previously determined EC80) in assay medium, with concurrent bioluminescence detection. Agonist activity of test compounds is excluded by separate assays that measure response to test compounds immediately, without added histamine agonist.
as §3

Structure (SMILES)	pEC50 [1]	pEC50 [2]
Cc1nc2c3ccc(F)cc3nc(N3CCN(C)CC3)n2n1 [Example 107, 8-Fluoro-2-methyl-5-(4-methylpiperazin-1-yl)-[1,2,4]triazolo[1,5-c]quinazoline]	> 5.00	< 5.00
Fc1cc(Cl)cc2nc(N3CCNCC3)c3nncn3c12 [Example 192, 7-chloro-9-fluoro-4-(piperazin-1-yl)-[1,2,4]triazolo[4,3-a]quinoxaline]	< 5.00	< 5.00
Clc1ccc2nc(N3CCNCC3)c3nocc3c2c1 [Example 167, 8-Chloro-4-(piperazin-1-yl)isoxazolo[3,4-c]quinoline]	> 5.00	> 5.00
Cc1cc2nc(N3CCN(C)CC3)c3nncn3c2cc1F [Example 36, 8-fluoro-7-methyl-4-(4-methylpiperazin-1-yl)-[1,2,4]triazolo[4,3-a]quinoxaline]	> 5.00	< 5.00
CN1CCN(c2nc3ccc(OC(F)(F)F)cc3n3cnnc23)CC1 [Example 50, 4-(4-methylpiperazin-1-yl)-8-(trifluoromethoxy)-[1,2,4]triazolo[4,3-a]quinoxaline]	> 5.00	< 5.00
CC1(C)CN(c2nc3ccc(Cl)cc3n3cnnc23)CCN1 [Example 82, 8-chloro-4-(3,3-dimethylpiperazin-1-yl)-[1,2,4]triazolo[4,3-a]quinoxaline]	> 5.00	< 5.00
Fc1cc2nc(N3CCNCC3)c3nccn3c2cc1F [Example 182, 7,8-difluoro-4-(piperazin-1-yl)imidazo[1,2-a]quinoxaline]	> 5.00	> 5.00
CC(C)Nc1ccc2nc(N3CCN(C)CC3)c3nncn3c2c1 [Example 176, N-isopropyl-4-(4-methylpiperazin-1-yl)-[1,2,4]triazolo[4,3-a]quinoxalin-8-amine]	< 5.00	< 5.00
Fc1cc(Cl)cc2c1nc(N1CCNCC1)c1nncn12 [Example 196, 8-chloro-6-fluoro-4-(piperazin-1-yl)-[1,2,4]triazolo[4,3-a]quinoxaline]	> 5.00	< 5.00
Brc1ccc2nc(N3CCNCC3)c3nocc3c2c1 [Example 223, 8-bromo-4-(piperazin-1-yl)isoxazolo[3,4-c]quinoline]	> 5.00	> 5.00
Cc1cn2c(n1)c(N1CCN(C)CC1)nc1ccc(Cl)cc12 [Example 9, 8-Chloro-2-methyl-4-(4-methylpiperazin-1-yl)imidazo[1,2-a]quinoxaline]	> 5.00	< 5.00
Clc1ccc2nc(N3CC4CCCNC4C3)c3nncn3c2c1 (stereo not drawn) [Example 61, 8-chloro-4-(tetrahydro-1H-pyrrolo[3,4-b]pyridin-6(2H,7H,7aH)-yl)-[1,2,4]triazolo[4,3-a]quinoxaline]	> 5.00	< 5.00
CN1CC[C@H](COc2nc3ccc(Cl)cc3n3cnnc23)C1 [Example 76, (S)-8-chloro-4-((1-methylpyrrolidin-3-yl)methoxy)-[1,2,4]triazolo[4,3-a]quinoxaline]	< 5.00	< 5.00
CN1CCN(c2nc3ccc(Cl)cc3c3c2ncn3C)CC1 [Example 159, 8-Chloro-1-methyl-4-(4-methylpiperazin-1-yl)-1H-imidazo[4,5-c]quinoline]	> 5.00	< 5.00
CN(C)CCN(C)c1nc2ccc(Cl)cc2n2cnnc12 [Example 78, N^1-(8-chloro-[1,2,4]triazolo[4,3-a]quinoxalin-4-yl)-N^1,N^2,N^2-trimethylethane-1,2-diamine]	< 5.00	< 5.00
CN1CCN(c2nc3ccc(Cl)cc3c3nncn23)CC1 [Example 14, 9-chloro-5-(4-methylpiperazin-1-yl)-[1,2,4]triazolo[4,3-c]quinazoline]	< 5.00	> 5.00

Structure (SMILES)	pEC50 [1]	pEC50 [2]
Cc1nc2c(N3CCNCC3)nc3ccc(Cl)cc3c2[nH]1 [Example 163, 8-Chloro-2-methyl-4-piperazinylimidazo[4,5-c]quinoline]	< 5.00	< 5.00
NC1CN(c2nc3ccc(Cl)cc3n3cnnc23)C1 [Example 63, 1-(8-chloro-[1,2,4]triazolo[4,3-a]quinoxalin-4-yl)azetidin-3-amine]	> 5.00	< 5.00
CN1CCN(c2nc3ccc(C(F)(F)F)cc3c3conc23)CC1 [Example 218, 4-(4-methylpiperazin-1-yl)-8-(trifluoromethyl)isoxazolo[3,4-c]quinoline]	> 5.00	< 5.00
CN1CCN(c2nc3ccc(Br)cc3c3conc23)CC1 [Example 222, 8-bromo-4-(4-methylpiperazin-1-yl)isoxazolo[3,4-c]quinoline]	> 5.00	< 5.00
Cc1nc2c3cc(OC(F)(F)F)ccc3nc(N3CCNCC3)n2n1 [Example 134, 2-methyl-5-(piperazin-1-yl)-9-(trifluoromethoxy)-[1,2,4]triazolo[1,5-c]quinazoline hydrochloride]	> 5.00	< 5.00
Cc1nc2c(N3CCNCC3)nc3cc(F)c(F)cc3c2o1 [Example 146, 7,8-difluoro-2-methyl-4-(piperazin-1-yl)oxazolo[4,5-c]quinoline]	> 5.00	> 5.00
CN1CCN(c2nc3ccc(C(F)(F)F)cc3c3cn(C)nc23)CC1 [Example 155, 2-Methyl-4-(4-methylpiperazinyl)-8-(trifluoromethyl)pyrazolo[3,4-c]quinoline]	> 5.00	< 5.00
NC1CCN(c2nc3ccc(Cl)cc3n3cnnc23)C1 (stereo not drawn) [Example 59, 1-(8-chloro-[1,2,4]triazolo[4,3-a]quinoxalin-4-yl)pyrrolidin-3-amine]	> 5.00	< 5.00
FC(F)(F)c1cc2nc(N3CCNCC3)c3nncn3c2cc1Cl [Example 47, 8-Chloro-4-(piperazin-1-yl)-7-(trifluoromethyl)-[1,2,4]triazolo[4,3-a]quinoxaline]	> 5.00	< 5.00
Clc1ccc2c(c1)nc(N1CCNCC1)c1nnnn12 [Example 16, 7-Chloro-4-(piperazin-1-yl)tetrazolo[1,5-a]quinoxaline]	> 5.00	< 5.00
CN1CCN(c2nc3ccc(Cl)cc3c3ccoc23)CC1 [Example 147, 8-Chloro-4-(4-methylpiperazin-1-yl)furo[2,3-c]quinoline]	> 5.00	< 5.00
CN1CCN(c2nc3c(F)cc(C(F)(F)F)cc3n3cnnc23)CC1 [Example 48, 6-Fluoro-4-(4-methylpiperazin-1-yl)-8-(trifluoromethyl)-[1,2,4]triazolo[4,3-a]quinoxaline]	> 5.00	< 5.00
CNCCOc1nc2ccc(Cl)cc2n2cnnc12 [Example 80, 2-(8-chloro-[1,2,4]triazolo[4,3-a]quinoxalin-4-yloxy)-N-methylethanamine]	< 5.00	< 5.00
Brc1ccc2c(c1)nc(N1CCNCC1)c1nnnn12 [Example 194, 7-bromo-4-(piperazin-1-yl)tetrazolo[1,5-a]quinoxaline hydrochloride]	> 5.00	< 5.00
Fc1c(C(F)(F)F)ccc2nc(N3CCNCC3)c3nncn3c12 [Example 169, 9-fluoro-4-(piperazin-1-yl)-8-(trifluoromethyl)-[1,2,4]triazolo[4,3-a]quinoxaline]	> 5.00	< 5.00
FC(F)(F)c1ccc2nc(N3CCNCC3)c3nocc3c2c1 [Example 219, 4-piperazinyl-8-(trifluoromethyl)isoxazolo[3,4-c]quinoline]	–	< 5.00
